From US20150342165A1, “HUMANIZED MOUSE AND METHODS OF USING THE SAME” (City of Hope, priority 2014, published 2015) come the findings set out here.

The experiment has as its system GM-HSPC and their progeny. The settings on record: for Enrichment of frequency of CD45+/GFP+ cells in spleen and bone marrow: necropsy 11 weeks after transplantation. As for the experimental part: All animals except control mice received 20 mg/kg O^6BG (Sigma-Aldrich, St. Louis, Mo.) followed by 5 mg/kg BCNU (Sigma-Aldrich, St. Louis, Mo.) mouse 1.5 hour later via IP injection. Drug doses were administered at either at the 7th and 8th or 7th, 8th, and 9th weeks post-transplantation. O^6BG was prepared in 35% PEG-400 (Sigma-Aldrich, St. Louis, Mo.) and 60% injectable saline.
Lentiviral vector was produced by calcium phosphate precipitation in HEK293T cells as previously described by Li M J et al. (2005). CD34+ cells were pre-stimulated overnight in SFT6. Lentiviral transduction was conducted at 1×10^6 cells/mL on Retronectin™ (Takara, Otsu-Shiga Japan)-coated non-tissue culture T-75 flask for 24 h in the presence of […] rapamycin (Sigma-Aldrich, St. Louis, Mo.). Lentivirus and rapamycin were removed and cells were washed once before being resuspended for transplantation in 0.9% NaCl saline solution with Fc/IL-7 as described above.
Mice were necropsied at 16 or 25 weeks post transplantation for analysis of engraftment. Single cell suspensions of bone marrow (femurs) and spleen were prepared by mechanical dissociation and red cells lysed using ACK lysis Buffer (Sigma-Aldrich, St. Louis, Mo.). All cell suspensions were pre-treated with human immunoglobulin (GammaGard, Baxter Healthcare Corp. Deerfield, Ill.) for 30 minutes to block nonspecific antibody staining. Cell suspensions were stained with a human pan-leukocyte antibody to CD45-PC5 (BioLegendR, San Diego, Calif.), and lineage specific antihuman, CD3-ECD, CD4-APC, CD14-APC-Alexa-750, CD19-PE (Invitrogen, Carlsbad, Calif.), and CD8β-PC5 (Beckman Coulter, Brea, Calif.), for 20 minutes and washed 2 times with 1 mL of PBS containing 0.1% BSA (Sigma-Aldrich, St Louis, Mo.). BM cells were stained with antibodies to human CD45-PC5, CD34-PC7, CD45-ECD (Beckman Coulter, Brea, Calif.), CD33-PC5 (BD Biosciences, San Diego, Calif.), CD19-PE, and CD14-APC-Alexa750 (Invitrogen, Carlsbad, Calif.) for 20 minutes and washed 2 times with 1 mL of PBS containing 0.1% BSA. To establish analytical gates and background staining, bone marrow and spleen samples from 2-3 mice that received no human cells mice were stained with the same antibody panel. Samples were analyzed using a Gallios flow cytometer (Beckman Coulter, Hialeah, Fla.) and data analyzed with FCS Express software (De Novo Software, Los Angeles, Calif.).
Lentiviral vectors expressing unique combinations of small anti-HIV RNAs expressed from a naturally occurring micro RNA cluster (MCM-7) are known. See Chung J, et al. Endogenous MCMI microRNA cluster as a novel platform to multiplex small interfering and nucleolar RNAs for combinational HIV-1 gene therapy. Human gene therapy. 2012; 23:1200-1208. […] CD34+ HSPC were transduced with this vector and used to transplant NSG mice as described in materials and methods. Animals were treated with O^6BG and BCNU at weeks 7 and 8 (2× treatment) or weeks 7, 8 and 9 (3× treatment) following transplantation. Two weeks later (11 weeks following transplantation) animals were necropsied and the level of engraftment of the spleen and bone marrow were determined.

The mark [1] stands for this setting: second experiment, different donor, 7 weeks recovery with weekly Fc/IL-7.

Where two headings read alike, the source gives them in different places.

For the substance “O^6-benzylguanine; bis-chloronitrosourea [O^6BG/BCNU]”, the “Enrichment in GM progeny in bone marrow and spleen” value (2-3 rounds of treatment) is 4-8 fold. Further, the “Engraftment of spleen and bone marrow with human cells relative to untreated control” value (2× and 3× treated animals, p<0.0001) was “reduced”. Also, the “Enrichment of frequency of CD45+/GFP+ cells in spleen and bone marrow” value (2× treatment (weeks 7 and 8)) was 10 fold. Moreover, where the note is “3× treatment (weeks 7, 8 and 9)”, the “Enrichment of frequency of CD45+/GFP+ cells in spleen and bone marrow” value came to 15 fold. In addition, under setting [1], the “CD45+ cells in bone marrow and spleen” value is “depletion”; the “Enrichment of CD3+/CD4+/GFP+ T-cells” value is reported as “no significant enrichment”; the “Frequency of CD45+/GFP+ human cells and CD14+/CD4+/GFP+ monocytes” value is “concomitant increase”. Also, the “Increase of CD4+/CD14+/GFP+ monocytes in the spleens” value (three treatments) turned out to be 3 fold. The “Increase of average frequency of CD3+/CD4+ T-cells in the spleen” value (treatment performed three times) is reported as 3 fold.
